According to ChEMBL document CHEMBL4130507, “Therapeutic investigations of novel indoxyl-based indolines: A drug target validation and Structure-Activity Relationship of angiotensin-converting enzyme inhibitors with cardiovascular regulation and thrombolytic potential” (Eur J Med Chem, 2017):
Activity calls are given as the source filed them. The calls are words filed in the database; no cut-off is given here.

What was measured:
[1] = biological target: T1, Angiotensin-converting enzyme (Homo sapiens, UniProt P12821); experiment: Inhibition of ACE (unknown origin) using Hippuryl-L-Histidyl-L-Leucine as substrate after 60 mins by colorimetric method
T1 sequence (P12821 whole entry): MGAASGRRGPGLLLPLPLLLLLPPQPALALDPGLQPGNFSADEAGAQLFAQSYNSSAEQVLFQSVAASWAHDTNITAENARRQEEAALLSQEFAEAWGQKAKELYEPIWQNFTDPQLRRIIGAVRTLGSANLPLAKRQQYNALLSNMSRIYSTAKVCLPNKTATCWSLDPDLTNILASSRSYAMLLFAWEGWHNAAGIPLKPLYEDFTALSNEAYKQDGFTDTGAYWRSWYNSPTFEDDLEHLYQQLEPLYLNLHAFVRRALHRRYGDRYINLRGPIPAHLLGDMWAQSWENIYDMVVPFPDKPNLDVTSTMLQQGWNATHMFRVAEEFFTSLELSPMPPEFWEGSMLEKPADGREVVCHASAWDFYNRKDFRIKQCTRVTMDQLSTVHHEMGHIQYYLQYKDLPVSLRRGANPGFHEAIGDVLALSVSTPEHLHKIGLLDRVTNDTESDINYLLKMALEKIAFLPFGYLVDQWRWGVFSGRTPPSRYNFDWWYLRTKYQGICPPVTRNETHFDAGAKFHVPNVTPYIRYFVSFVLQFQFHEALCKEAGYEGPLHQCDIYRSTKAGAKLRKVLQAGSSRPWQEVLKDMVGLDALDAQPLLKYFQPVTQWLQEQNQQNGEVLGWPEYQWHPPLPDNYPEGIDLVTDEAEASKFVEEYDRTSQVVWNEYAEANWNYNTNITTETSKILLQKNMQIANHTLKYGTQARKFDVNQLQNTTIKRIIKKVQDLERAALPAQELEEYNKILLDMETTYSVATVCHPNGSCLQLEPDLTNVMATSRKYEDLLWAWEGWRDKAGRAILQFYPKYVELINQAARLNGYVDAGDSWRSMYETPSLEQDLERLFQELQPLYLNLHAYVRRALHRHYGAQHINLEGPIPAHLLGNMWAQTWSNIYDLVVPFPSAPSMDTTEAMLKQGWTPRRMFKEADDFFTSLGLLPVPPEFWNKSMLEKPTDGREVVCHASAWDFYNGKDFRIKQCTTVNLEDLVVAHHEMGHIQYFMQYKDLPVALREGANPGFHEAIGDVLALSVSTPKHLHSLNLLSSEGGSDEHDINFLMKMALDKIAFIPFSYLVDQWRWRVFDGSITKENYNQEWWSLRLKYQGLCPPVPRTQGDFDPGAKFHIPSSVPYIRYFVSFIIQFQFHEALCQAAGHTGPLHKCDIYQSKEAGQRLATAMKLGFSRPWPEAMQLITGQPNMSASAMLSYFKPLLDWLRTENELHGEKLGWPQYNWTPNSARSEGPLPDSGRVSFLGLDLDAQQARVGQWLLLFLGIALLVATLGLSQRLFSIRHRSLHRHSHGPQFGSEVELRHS

[2] = biological target: T1, Angiotensin-converting enzyme; experiment: Inhibition of ACE (unknown origin) at IC50 using Hippuryl-L-Histidyl-L-Leucine as substrate after 60 mins by colorimetric method relative to control
[3] = Antioxidant activity assessed as H2O2 free radical scavenging activity at IC50 after 1 hr by UV spectrophotometric analysis relative to control; type: functional
[4] = Antioxidant activity assessed as H2O2 free radical scavenging activity after 1 hr by UV spectrophotometric analysis; type: functional
DNA = experiment: Inhibition of H2O2-induced Escherichia coli DH5alpha genomic DNA damage at 25 to 250 uL after 24 hrs by ethidium-bromide staining-based agarose gel electrophoresis; type: nucleic-acid assay; conditions: Escherichia coli DH5[alpha]
Blood [5] = experiment: Thrombolytic activity in human blood after 2 hrs relative to control; type: functional
Blood [6] = experiment: Thrombolytic activity in human blood after 60 mins; type: functional, tissue-based
MCF7 [7] = experiment: Cytotoxicity against human MCF7 cells after 24 to 72 hrs by MTT assay; type: functional, cell-based
MCF7 [8] = experiment: Cytotoxicity against human MCF7 cells at IC50 after 24 to 72 hrs by MTT assay relative to control; type: functional
MCF10 = experiment: Cytotoxicity against human MCF10 cells at 10 to 150 ug/ml after 24 to 72 hrs by MTT assay; type: cell-based
Blood [9] = experiment: Thrombolytic activity in human blood after 2 hrs; type: functional, tissue-based
Erythrocyte = experiment: Induction of membrane stabilization in human RBC assessed as reduction in hemolysis relative to control; type: functional; parameters: scale not given: the % may be the effect or the level left

SMILES | IC50 [1] [nM] | inhibition [2] [%] | Activity [3] [%] | Activity [4] | inhibition (DNA) | Activity (Blood [5]) [%] | Activity (Blood [6]) | IC50 (MCF7 [7]) [nM] | Activity (MCF7 [8]) [%] | Activity (MCF10) | IC50 (Blood [9]) [nM] | Activity (Erythrocyte) [%]
CCCN1C(=O)/C(=N\C(=S)NCc2cc3ccccc3cc2O)c2ccccc21 | 11.8 | 80.7 | 75.1 | Dose-dependent effect | – | – | – | – | – | – | – | –
O=C1O[C@H]([C@@H](O)CO)C(O)=C1O | – | – | 90.1 | – | – | – | – | – | – | – | – | –
O=C1/C(=N\C(=S)NCc2cc3ccccc3cc2O)c2ccccc2N1c1ccccc1Cl | 15.1 | 76.5 | 82.7 | Dose-dependent effect | – | – | – | – | – | – | – | –
NCCCC[C@H](N[C@@H](CCc1ccccc1)C(=O)O)C(=O)N1CCC[C@H]1C(=O)O | – | 89.1 | – | – | – | – | – | – | – | – | – | –
Cc1ccc(C(=O)N2C(=O)/C(=N\C(=S)NCc3cc4ccccc4cc3O)c3ccccc32)cc1 | 24.2 | 65 | 83.1 | Dose-dependent effect | – | – | – | – | – | – | – | –
CC(=O)CN1C(=O)/C(=N\C(=S)NCc2cc3ccccc3cc2O)c2ccccc21 | 112 | 24 | 68.5 | Dose-dependent effect | – | – | – | – | – | – | – | –
COc1ccc(N2C(=O)/C(=N/C(=S)NCc3cc4ccccc4cc3O)c3ccccc32)cc1 | 9.82 | 86.4 | 79.4 | Dose-dependent effect | – | – | – | – | – | – | – | –
COc1ccc(CN2C(=O)/C(=N\C(=S)NCc3cc4ccccc4cc3O)c3ccccc32)cc1 | 7.64 | 88.5 | 78 | Dose-dependent effect | Active | 83.5 | – | – | – | – | – | –
O=C1/C(=N\C(=S)NCc2cc3ccccc3cc2O)c2ccccc2N1CCBr | 4.11 | 90.5 | 92.5 | Dose-dependent effect | Active | 83.5 | Active | 92 | 82.94 | Non-Toxic | – | –
COc1cccc2c1C(=O)c1c(O)c3c(c(O)c1C2=O)C[C@@](O)(C(=O)CO)C[C@@H]3O[C@H]1C[C@H](N)[C@H](O)[C@H](C)O1 [DOXORUBICIN] | – | – | – | – | – | – | – | – | 78.42 | – | – | –
O=C1/C(=N\C(=S)NCc2cc3ccccc3cc2O)c2ccccc2N1C(=O)c1ccccc1 | 8.84 | 87.3 | 89.5 | Dose-dependent effect | Active | 83.5 | – | 102 | 78.12 | Non-Toxic | – | –
O=C1/C(=N\C(=S)NCc2cc3ccccc3cc2O)c2ccccc2N1c1ccccc1 | 19 | 69.2 | 80.8 | Dose-dependent effect | – | – | – | – | – | – | – | –
O=C(O)CN1C(=O)/C(=N\C(=S)NCc2cc3ccccc3cc2O)c2ccccc21 | 2.85 | 96.1 | 98.1 | Dose-dependent effect | Active | 83.5 | Active | 82 | 89.02 | Non-Toxic | 35 | 96
CC(=O)N1C(=O)/C(=N\C(=S)NCc2cc3ccccc3cc2O)c2ccccc21 | 10.7 | 82.7 | 81.2 | Dose-dependent effect | Active | – | – | – | – | – | – | –
CN1C(=O)/C(=N\C(=S)NCc2cc3ccccc3cc2O)c2ccccc21 | 22.3 | 66.5 | 74.1 | Dose-dependent effect | inactive | – | – | – | – | – | – | –
